Measured values as given in patent US10143747B2, “Breast cancer therapeutics” (IMBA—INSTITUT FÜR MOLEKULARE BIOTECHNOLOGIE GMBH, priority 2010, dated 2018).

Columns and labels:
RANKL = RANKL protein in mammary gland / isolated mammary epithelial cells (immunostaining, Western blot) after MPA implantation; format: in vivo, mouse
Procedure: a,b, Induction of RANKL expression by the progesterone-derivative MPA. Nulliparous wild type females were s.c. implanted with slow-release MPA pellets or treated with surgery sham. a, RANKL mRNA was determined in purified mammary epithelial cells by qRT-PCR three days after implantation. Data are shown as fold change compared to sham treatment (+/−sem) (n=3). b, In situ […] immunostaining of progesterone receptor (PR, red) and RANKL (green) in mammary epithelial cells after 3d MPA treatment. c, Induction of soluble RANKL protein assayed on isolated mammary gland epithelial cells from control, but not in prolactin receptor mutant (PRL-R KO) females on day 3 after s.c. MPA implantation. Mammary glands from sham operated control litter-mates and PRL-R KO females are shown as controls. d, Epithelial proliferation in mammary glands of control littermates and RANK^Δmam females 3 days after sham treatment and MPA implantation. Proliferation was determined by in situ Ki67 immunostaining. e,f, Marked increase of the stem cell-enriched CD24^+CD49^high population (MaSC) in MPA-treated mammary glands in control but not in RANK^Δmam mammary glands. e, Representative FACS profiles showing CD24 and CD49 expression of lineage negative (CD31^− (endothelial cells) CD45^− (hematopoietic cells) […] (erythroid cells)) of mammary MaSCs from MPA- or sham-treated 8-week old virgin females. f, Quantification of MaSC-enriched CD24^+CD49^high population from mammary glands of MPA- or sham-treated virgin RANK^Δmam and littermate control females. For all MaSCs experiments mice were treated with MPA for 3 days. n=4 per group+/−sem. *P<0.05; ***P<0.001 (Student's t-test).
a-d, Induction of RANKL expression by the progesterone-derivative MPA. Nulliparous wild type females were s.c. implanted with slow-release MPA pellets or treated with surgery sham. a, Expression of transmembrane (tm) and soluble (s) RANKL protein was assayed on isolated mammary gland epithelial cells by Western blot 3 and 6 days after MPA pellet implantation or sham surgery. β-actin is shown as a loading control. Recombinant murine sRANKL and recombinant human tmRANKL protein are shown for molecular size comparison in the right panels. […] Numbers indicate amino acid residues. c, Expression of total (t) RANKL, RANKL1, RANKL2, and RANKL3 mRNA in purified mammary epithelial cells after three days MPA treatment. β-actin is shown as a control. d, Representative agarose gel of RT-PCR products as in c. e, mRNA expression of various proteases known to shed RANKL from the surface of cells. mRNA was determined in purified mammary epithelial cells by qRT-PCR three days after MPA implantation. […]

[1] = system: SKBR3 human breast cancer cells; test: DNA damage responses (cell cycle arrest, apoptosis) in SKBR3 cells; format: cell-based; conditions: RANKL 1 μg/ml
Procedure: a, Western Blot analysis for γH2AX, phosphorylated (P) Chk1, total Chk1, p53 and β-actin in isolated primary mouse mammary gland epithelial cells in response to γ-irradiation (2 Gray) in the presence (1 μg/ml) or absence of RANKL stimulation. b,c, FACS analysis of propidium iodide (PI) stained b, mammary epithelial cells and c, SKBR3 human breast cancer cells after γ-irradiation (2 Gray) in the absence or presence (1 μg/ml) of RANKL. Data are representative of at least 3 experiments. Apoptotic cells with a DNA content <2n appear in the sub-G1 region. Percent of cells in sub-G1 (M1), G1-phase (M2), S/G2/M-phase (M3) as well as polyploid cells with a DNA content >4n are given for the indicated time points.
a,b, FACS analysis of a, mammary epithelial cells and b, SKBR3 human breast cancer cells incubated with the genotoxic agent doxorubicin (Dox, 1 μM) in the presence (1 μg/ml) or absence of RANKL. Data are representative of at least 3 experiments. Percent of cells in sub-G1 (M1), G1-phase (M2), S/G2/M-phase (M3) as well as polyploid cells with a DNA content >4n are given for 24 and 36 hours after doxorubicin treatment. c, mRNA expression of pro-apoptotic genes Bim, Puma, and Noxa 6 hours after γ-irradiation (2 Gray) in the presence (1 μg/ml) or absence of RANKL stimulation. Data are shown as fold change compared to control (+/−sem). n=3). *P<0.05; **P<0.005 (Student's t-test).
For measurement of cell cycle arrest and apoptosis primary mouse mammary epithelial cells and SKBR3 human breast cancer cells were seeded at a cell-density of 100000 cells/well in a 6-well plate and allowed to grow for 24 hours. Cells where then treated with doxorubicin (1 μM) or γ-irradiation (2 Gray) in the absence or presence of recombinant RANKL (1 μg/ml). Cell cycle arrest and numbers of dead cells were determined using propidium iodine staining. To determine in vivo mammary gland epithelial cell death, control and RANK^Δmam littermate females were γ-irradiated with a total dose of 5 Gray (Gy). Six hours later, mammary glands were isolated and immunostained for active Caspase 3 (Cell Signaling) indicative of apoptosis.

CC(=O)O[C@]1(C(C)=O)CC[C@H]2[C@@H]3C[C@H](C)C4=CC(=O)CC[C@]4(C)[C@H]3CC[C@@]21C [MPA, medroxyprogesterone acetate]
19 kDa soluble form of RANKL, Western blotting of isolated mammary epithelial cells (RANKL; 3 and 6 days after MPA pellet implantation): induction of the 19 kDa soluble form of RANKL | RANKL protein in the mammary gland, immunohistochemistry (RANKL; 3 d MPA treatment): induction of RANKL protein in the mammary gland | RANKL protein production (RANKL; female control mice, day 3 after s.c. MPA implantation): triggers substantial production of RANKL protein | RANKL protein induction (RANKL; prolactin receptor mutants (PRL-R KO), day 3 after s.c. MPA implantation): failed to detect RANKL induction

B1: RANKL: recombinant RANKL protein, ligand of RANK, used as stimulus (1 μg/ml or 1 μg i.p.) (protein, UniProt O35235 139-316, looked up)
Tumor necrosis factor ligand …: FSGAPAMMEGSWLDVAQRGKPEAQPFAHLTINAASIPSGSHKVTLSSWYHDRGWAKISNMTLSNGKLRVNQDGFYYLYANICFRHHETSGSVPTDYLQLMVYVVKTSIKIPSSHNLMKGGSTKNWSGNSEFHFYSINVGGFFKLRAGEEISIQVSNPSLLDPDQDATYFGAFKVQDID
early cell cycle arrest after DNA damage ([1]; doxorubicin 1 μM): did not alter the early cell cycle arrest | protection from cell death ([1]; doxorubicin 1 μM): marked protection from cell death | early cell cycle arrest after DNA damage ([1]; γ-irradiation 2 Gray): did not alter the early cell cycle arrest | protection from cell death ([1]; γ-irradiation 2 Gray): marked protection from cell death
